Series [1] concerns HBV (HepG2.117 cell line, inducibly HBV producing). Description: Anti-HBV activity: intracellular HBV DNA by real-time PCR in HepG2.117 cells after 3 days of treatment. In kind it is cell-based, hepatitis B virus. The protocol:
The anti HBV activity was measured using the HepG2.117 cell line, a stable, inducibly HBV producing cell line, which replicates HBV in the absence of doxycycline (Tet-off system). The HepG2 cell line is available from ATCCR under number HB-8065. Transfection of the HepG2 cell line can be as described in Sun and Nassal 2006 Journal of Hepatology 45 (2006) 636-645 “Stable HepG2- and Huh7-based human hepatoma cell lines for efficient regulated expression of infectious hepatitis B virus”.
For the antiviral assay, HBV replication was induced, followed by a treatment with serially diluted compound in 96-well plates. After 3 days of treatment, the antiviral activity was determined by quantification of intracellular HBV DNA using real-time PCR and an HBV specific primer set and probe.

Another series in a line: in vitro. In kind it is cell-based. Conditions: human, HepG2 or HepG2.117 cells, mean value. The protocol:
Cytotoxicity of the compounds was tested using HepG2 or HepG2.117 cells, incubated for 3 or 4 days in the presence of compounds. The viability of the cells was assessed using the PERKIN ELMER ATPlite Luminescence Assay System.”

Setting [2] is: HepG2.117 cells, 3 days of treatment, intracellular HBV DNA by real-time PCR; mean value; read-out: EC50 (μM, mean value).
[3] abbreviates: 3-days incubation (unmarked values), ATPlite.
Setting [4] is: Hepatitis B virus, HepG2.117, 72 h, HepG2.117 cells, 3 days of treatment, intracellular HBV DNA by real-time PCR; mean value; read-out: EC50 (μM, mean value).
Setting [5] is: Hepatitis B virus, HepG2.117, 72 h, HepG2.117 cells, intracellular HBV DNA by real-time PCR, 3 days of treatment, mean value; read-out: EC50 (μM, mean value).

Data on 24 molecules can be found in patent US20230091047A1 (priority 2019, published 2023).

Molecules are shown by their SMILES. Read-outs that look alike come from different tables or passages of the source.

Turning to `CNC(=O)c1ccc(-n2c(NC(C)C)nc3c(c2=O)C[C@@H](C)N(C(=O)c2ccc(Cl)c(Cl)c2)C3)c(C(F)(F)F)c1` (atropisomer, axis not shown) [Compound C340a, 4-[(6R)-7-(3,4-dichlorobenzoyl)-6-methyl-4-oxo-2-[(propan-2-yl)amino]-5,6,7,8-tetrahydropyrido[3,4-d]pyrimidin-3(4H)-yl]-N-methyl-3-(trifluoromethyl)benzamide], the EC50 in series [1] (setting [2]) came out at 0.1 µM. The CC50 at 3 days in the series “in vitro” (setting [3]) is 23.2 µM.
`CNC(=O)c1ccc(-n2c(N[C@@H](C)c3cccnc3OC)nc3c(c2=O)C[C@@H](C)N(C(=O)c2ccc(Cl)c(Cl)c2)C3)cc1` (relative stereo) [Compound C286, 4-[(rt)-7-(3,4-dichlorobenzoyl)-2-{[(1*S)-1-(2-methoxypyridin-3-yl)ethyl]amino}-6-methyl-4-oxo-5,6,7,8-tetrahydropyrido[3,4-d]pyrimidin-3(4H)-yl]-N-methylbenzamide]: the EC50 in series [1] (setting [4]) came out at 0.12 µM. The CC50 at 3 days in “in vitro” (setting [3]) was 29 µM.
In the same order, the values of `COc1ccc(CNc2nc3c(c(=O)n2-c2ccccc2OC)C[C@@H](C)N(C(=O)c2ccc(Cl)c(Cl)c2)C3)cc1` (single isomer, unassigned) [Compound C36Aa] are 0.31 µM and greater than 50 µM.
Turning to `COc1ccc(CNc2nc3c(c(=O)n2-c2ccccc2OC)C[C@H](C)N(C(=O)c2ccc(Cl)c(Cl)c2)C3)cc1` (single isomer, unassigned) [Compound C36Ab], the EC50 in series [1] (setting [2]) was 2.12 µM. Further, the CC50 at 3 days in “in vitro” (setting [3]) was greater than 50 µM.
Turning to `COc1ccccc1-n1c(N[C@H](C)CO)nc2c(c1=O)CCN(C(=O)c1ccc(Cl)c(Cl)c1)C2` (single isomer, unassigned) [Compound C62A, 7-(3,4-dichlorobenzoyl)-2-{[(2*R)-1-hydroxypropan-2-yl]amino}-3-(2-methoxyphenyl)-5,6,7,8-tetrahydropyrido[3,4-d]pyrimidin-4(3H)-one], the EC50 in series [1] (setting [4]) turned out to be 9.88 µM. In the series “in vitro” (setting [3]), the CC50 at 3 days was greater than 50 µM.
In the same order, the values of `COc1ccccc1-n1c(N[C@@H](C)CO)nc2c(c1=O)CCN(C(=O)c1ccc(Cl)c(Cl)c1)C2` (single isomer, unassigned) [Compound C62Ba, 7-(3,4-dichlorobenzoyl)-2-{[(2*S)-1-hydroxypropan-2-yl]amino}-3-(2-methoxyphenyl)-5,6,7,8-tetrahydropyrido[3,4-d]pyrimidin-4(3H)-one] are 3.65 µM and greater than 50 µM.
For the molecule `COc1ccccc1-n1c(N[C@H](C)C(F)(F)F)nc2c(c1=O)CCN(C(=O)c1ccc(Cl)c(Cl)c1)C2` (single isomer, unassigned) [Compound C101a], the EC50 in series [1] (setting [2]) worked out at 22.1 µM. For the same molecule, the 50% cytotoxic concentration (CC50) at 3 days in “in vitro” (setting [3]) stood at 36.9 µM.
For `COc1ccc(CNc2nc3c(c(=O)n2-c2ccc(S(C)(=O)=O)cc2)C[C@@H](c2ccc(F)cc2)N(C(=O)c2ccc(Cl)c(Cl)c2)C3)cc1` (single isomer, unassigned) [Compound C109A, (6*S)-7-(3,4-dichlorobenzoyl)-6-(4-fluorophenyl)-3-[4-(methanesulfonyl)phenyl]-2-{[(4-methoxyphenyl)methyl]amino}-5,6,7,8-tetrahydropyrido[3,4-d]pyrimidin-4(3H)-one], the EC50 in series [1] (setting [4]) was greater than 50 µM. For the same molecule, the CC50 at 3 days in the series “in vitro” (setting [3]) is greater than 50 µM.
On to `COc1ccc(CNc2nc3c(c(=O)n2-c2ccc(S(C)(=O)=O)cc2)C[C@H](c2ccc(F)cc2)N(C(=O)c2ccc(Cl)c(Cl)c2)C3)cc1` (single isomer, unassigned) [Compound C109B, (6*R)-7-(3,4-dichlorobenzoyl)-6-(4-fluorophenyl)-3-[4-(methanesulfonyl)phenyl]-2-{[(4-methoxyphenyl)methyl]amino}-5,6,7,8-tetrahydropyrido[3,4-d]pyrimidin-4(3H)-one], for which the CC50 at 3 days in the series “in vitro” (setting [3]) is greater than 50 µM.
On to `CC(C)Nc1nc2c(c(=O)n1-c1ccc(S(C)(=O)=O)cc1)C[C@@H](c1ccc(F)cc1)N(C(=O)c1ccc(Cl)c(Cl)c1)C2` (single isomer, unassigned) [Compound C110A, (6*S)-7-(3,4-dichlorobenzoyl)-6-(4-fluorophenyl)-3-[4-(methanesulfonyl)phenyl]-2-[(propan-2-yl)amino]-5,6,7,8-tetrahydropyrido[3,4-d]pyrimidin-4(3H)-one], for which the EC50 in series [1] (setting [4]) was greater than 50 µM. The CC50 at 3 days in “in vitro” (setting [3]) was greater than 50 µM.
As to `CC(C)Nc1nc2c(c(=O)n1-c1ccc(S(C)(=O)=O)cc1)C[C@H](c1ccc(F)cc1)N(C(=O)c1ccc(Cl)c(Cl)c1)C2` (single isomer, unassigned) [Compound C110B, (6*R)-7-(3,4-dichlorobenzoyl)-6-(4-fluorophenyl)-3-[4-(methanesulfonyl)phenyl]-2-[(propan-2-yl)amino]-5,6,7,8-tetrahydropyrido[3,4-d]pyrimidin-4(3H)-one], the EC50 in series [1] (setting [4]) is 6.38 µM. The same molecule gave a CC50 at 3 days in the series “in vitro” (setting [3]) greater than 50 µM.
For the molecule `CC(C)Nc1nc2c(c(=O)n1-c1ccc(S(C)(=O)=O)cc1)[C@@H](C)CN(C(=O)c1ccc(Cl)c(Cl)c1)C2` (single isomer, unassigned) [Compound C154A, (*R)-7-(3,4-dichlorobenzoyl)-2-(isopropylamino)-5-methyl-3-(4-(methylsulfonyl)phenyl)-5,6,7,8-tetrahydropyrido[3,4-d]pyrimidin-4(3H)-one], the EC50 in series [1] (setting [4]) turned out to be 1.32 µM. Further, in “in vitro” (setting [3]), the CC50 at 3 days is greater than 50 µM.
With `CC(C)Nc1nc2c(c(=O)n1-c1ccc(S(C)(=O)=O)cc1)[C@H](C)CN(C(=O)c1ccc(Cl)c(Cl)c1)C2` (single isomer, unassigned) [Compound C154B, (*S)-7-(3,4-dichlorobenzoyl)-2-(isopropylamino)-5-methyl-3-(4-(methylsulfonyl)-phenyl)-5,6,7,8-tetrahydropyrido[3,4-d]pyrimidin-4(3H)-one], in series [1] (setting [4]), the EC50 was 0.51 µM. Moreover, the CC50 at 3 days in the series “in vitro” (setting [3]) is greater than 50 µM.
Take `CC[C@@H]1Cc2c(nc(NC(C)C)n(-c3ccc(S(C)(=O)=O)cc3)c2=O)CN1C(=O)c1ccc(Cl)c(Cl)c1` (single isomer, unassigned) [Compound C158A, (6*R)-7-(3,4-dichlorobenzoyl)-6-ethyl-3-[4-(methanesulfonyl)phenyl]-2-[(propan-2-yl)amino]-5,6,7,8-tetrahydropyrido[3,4-d]pyrimidin-4(3H)-one]: in series [1] (setting [4]), the 50% effective concentration (EC50) worked out at 0.91 µM. The CC50 at 3 days in “in vitro” (setting [3]) was greater than 50 µM.
In the same order, the values of `CC[C@H]1Cc2c(nc(NC(C)C)n(-c3ccc(S(C)(=O)=O)cc3)c2=O)CN1C(=O)c1ccc(Cl)c(Cl)c1` (single isomer, unassigned) [Compound C158B, (6*S)-7-(3,4-dichlorobenzoyl)-6-ethyl-3-[4-(methanesulfonyl)phenyl]-2-[(propan-2-yl)amino]-5,6,7,8-tetrahydropyrido[3,4-d]pyrimidin-4(3H)-one] are 2.13 µM and 35.7 µM.
In the same order, the values of `CNC(=O)OCC[C@@H](Nc1nc2c(c(=O)n1-c1ccc(C(=O)NC)cc1)C[C@@H](C)N(C(=O)c1ccc(Cl)c(Cl)c1)C2)C1CC1` (single isomer, unassigned) [Compound C256, (3*R)-3-cyclopropyl-3-({(6R)-7-(3,4-dichlorobenzoyl)-6-methyl-3-[4-(methylcarbamoyl)phenyl]-4-oxo-3,4,5,6,7,8-hexahydropyrido[3,4-d]pyrimidin-2-yl}amino)propyl methylcarbamate] are 3.26 µM and greater than 50 µM.
As for `CNC(=O)c1ccc(-n2c(N[C@@H](C)c3ccc(C(F)(F)F)c(F)c3)nc3c(c2=O)C[C@@H](C)N(C(=O)c2ccc(Cl)c(Cl)c2)C3)cc1` (single isomer, unassigned) [Compound C659b], the EC50 in series [1] (setting [5]) was greater than 2.5 µM.
Regarding `CC(C)Nc1nc2c(c(=O)n1-c1ccc(S(C)(=O)=O)cc1)CCN(C(=O)c1cc3cc(Cl)ccc3[nH]1)C2` [Compound C357], in “in vitro” (setting [3]), the CC50 at 3 days is greater than 50 µM.
On the same count and under the same terms, to `CC(C)Nc1nc2c(c(=O)n1-c1ccc(S(C)(=O)=O)cc1)CCN(C(=O)c1cc3ncccc3[nH]1)C2` [Compound C368] belongs greater than 50 µM; to `CC(C)Nc1nc2c(c(=O)n1-c1ccc(S(C)(=O)=O)cc1)CCN(C(=O)c1cc3cnccc3[nH]1)C2` [Compound C369], greater than 50 µM.
As for `CNC(=O)c1ccc(-n2c(NCc3cnn(-c4ccccc4)n3)nc3c(c2=O)C[C@@H](C)N(C(=O)c2ccc(Cl)c(Cl)c2)C3)cc1` [Compound C464], in series [1] (setting [5]), the EC50 amounted to 0.62 µM.
Molecule `CC(C)Nc1nc2c(c(=O)n1-c1ccc(C(=O)N3CCOCC3)cc1)C[C@@H](C)N(C(=O)c1ccc(Cl)c(C(F)(F)F)c1)C2` [Compound C649] displayed a CC50 at 3 days in the series “in vitro” (ATPlite, 3-days incubation (not marked with *)) greater than 50 µM.
As to `CNC(=O)c1ccc(-n2c(N[C@@H](C)c3ccc(C(F)(F)F)cc3)nc3c(c2=O)C[C@@H](C)N(C(=O)c2ccc(Cl)c(C(F)(F)F)c2)C3)cc1` [Compound C650], in series [1] (setting [5]), the concentration giving a half-maximal response (EC50) stood at 0.05 µM.
For `CNC(=O)c1ncc(-n2c(NC)nc3c(c2=O)C[C@@H](C)N(C(=O)c2ccc(Cl)c(C(F)(F)F)c2)C3)n1C` [Compound C702], in the series “in vitro” (3-days incubation (unmarked values), ATPlite viability), the half-maximal cytotoxic concentration (CC50) at 3 days is greater than 50 µM.

In general, EC50 refers to the concentration needed to bring the measured effect to its halfway point. As usually defined, the CC50 is the concentration giving 50% cytotoxicity. High values mean better tolerance by the cells, low ones harm at low concentration.
